Assay results: patent US20250282797A1, “CRYSTALLINE FORM OF FGFR4 INHIBITOR AND USE THEREOF” (CSPC ZHONGQI PHARMACEUTICAL TECHNOLOGY (SHIJIAZHUANG) CO., …, priority 2022, published 2025)
In brackets after ≈: the same amount, converted by molar mass. Where two headings read alike, the source gives them in different places.

Columns and labels:
[1] = Competitive suspension experiments; assay type: physicochemical; conditions: for XRPD result (room temperature): 25° C.
Procedure: Test Example 1: Competitive Suspension Experiments
Equal amounts (6 mg) of the crystalline form I sample of the compound of formula B obtained in Example 1, the crystalline form II sample of the compound of formula B obtained in Example 22, and the crystalline form III sample of the compound of formula B obtained in Example 33 were mixed. The resulting mixture was separately stirred at room temperature (25° C.) and at a high temperature (50° C.) for 24 h, 2 days, and 7 days in the following solvents, and the remaining solids were subjected to the XRPD test.

Solubility test = assay type: physicochemical; conditions: 200 rpm; for FeSSIF Solubility: FeSSIF (pH about 5.00); for solubility at 24 h: 37 °C, thermodynamic from solid
Procedure: Test Example 2: Solubility Test
The crystalline form I sample (5 mg) obtained in Example 1 and the crystalline form II sample (5 mg) obtained in Example 22 were added to a sample bottle, and 1 mL of SGF (simulated gastric fluid), FaSSIF (fasted state simulated intestinal fluid), FeSSIF (fed state simulated intestinal fluid), and water were separately added. The resulting suspensions were shaken at 37° C. at a rotation speed of 200 rpm for 24 h and filtered. The resulting filtrates were subjected to the concentration test, and the resulting solids were subjected to XRPD characterization.

Solid stability study = assay type: physicochemical; conditions: 7 days
Procedure: Test Example 3: Solid Stability Study
The crystalline form I (5 mg) obtained in Example 1 and the crystalline form II (5 mg) obtained in Example 22 were weighed into sample bottles; the samples were subjected to solid-state stability studies after being placed under the conditions of 60° C. (closed) and 40° C./75% RH (open); and sampling was performed on day 7 for XRPD characterization.

[2] = Dynamic vapor sorption/desorption (DVS) analysis; assay type: physicochemical
Procedure: 2. Dynamic Vapor Sorption/Desorption (DVS) Analysis
Instrument: DVS Intrinsic plus (SMS, UK).
Method: a sample is placed in a tared sample basket, the weight of the sample is automatically measured, and the sample is dried at 40° C./0% RH until dm/dt is less than 0.002% and then cooled to 25° C.

Grinding stability study = assay type: physicochemical
[3] = Pharmacokinetic study in rats; assay type: in vivo, SD rats; conditions: rat
From the text: Test Example 6: Pharmacokinetic Study of Compound of Formula B in Rats
Assay drug: the compound of formula B obtained in Preparation Example 1.
Instrument: LC-MS/MS-13 (TQ5500, Triple quad), with the operation software of Xcalibur2.0.7 (Thermo Fisher Scientific, USA); LC-10ADvp liquid chromatography system (Shimadzu, Japan); Shimadzu LC-20AD liquid chromatography pump; Shimadzu CBM-20A system controller; Shimadzu CTO-20A column oven; and SIL-20AC autosampler (Shimadzu, Japan). Chromatographic column: Agilent Zorbax SB-CN 3.5 u 100×2.1 mm; column temperature: 40° C.; mobile phase A: 0.1% aqueous formic acid solution; mobile phase B: a 0.1% solution of formic acid in acetonitrile; flow rate: 0.60 mL/min. The gradient elution was performed as follows: from 0 to 0.5 min, the mobile phase B was increased from 1% to 90%; from 0.5 to 1.2 min, 90% of the mobile phase B was maintained; starting from 1.21 min, the mobile phase B was changed back to 1%; and elution was stopped at 1.60 min.
Animals: 6 male SD rats were supplied by Shanghai Sippe-Bk Lab Animal Co., Ltd. The body weight range was 180-220 g. After purchase, the rats were bred in the laboratory of the experimental animal center for 2 days for later use. The rats were fasted 10-14 h before administration and 4 h after administration, and given ad libitum access to water during the assay. The rats were randomly divided into two groups, with 3 rats in each group. One group was intravenously injected, and the other group was intragastrically administered.
Preparation of intragastric administration solution: the compound of formula B (4.85 mg) was precisely weighed out, and a mixed aqueous solution (9.70 mL) containing 0.5% methylcellulose and 0.4% Tween-80 was added, followed by sonication at room temperature to prepare a 0.5 mg/mL suspension. Preparation of intravenous injection solution: the compound of formula B (2.79 mg) was precisely weighed out, and DMSO (21 μL), PEG200 (2.79 mL), and normal saline (4.164 mL) were added to prepare a 0.4 mg/mL solution.
Blood was collected in the intragastric administration group about 0.25 h before administration and 0.25 h, 0.5 h, 1 h, 1.5 h, 2 h, 4 h, 6 h, 8 h, 12 h, and 24 h after administration. Blood was collected in the intravenous administration group about 0.25 h before administration and 0.083 h, 0.25 h, 0.5 h, 0.75 h, 1 h, 2 h, 4 h, 8 h, 12 h, and 24 h after administration. The blood was collected from the jugular vein or other venipuncture at 0.25 mL/time point and anticoagulated with EDTA-K2 or EDTA-K3. The collected blood was placed on the ice. After the blood samples were collected, plasma was separated by centrifugation (centrifugation conditions: 6800 g/min, 6 min, 2-8° C.). The collected plasma samples were stored in a refrigerator at −80° C. for testing prior to analysis.
The compound of the formula B was accurately weighed out and formulated into different concentrations, and quantitative analysis was performed on a mass spectrometer to establish a standard curve. The concentration of the compound of formula B in the plasma described above was then measured to obtain the concentrations of the compound of formula B at different time points. All the measured data were collected and processed by relevant software, and pharmacokinetic parameters (mainly including kinetic parameters Tmax, T1/2, Cmax, AUC0-t, etc.) were calculated by adopting a statistical moment method. […]

[4] = Dichloromethane/acetonitrile (V:V = 1:2), 0.5 mL, 24 h
[5] = Dichloromethane/acetonitrile (V:V = 1:2), 0.5 mL, 7 days
[6] = Dichloromethane/ethanol (V:V = 1:4), 0.5 mL, 24 h
[7] = Dichloromethane/ethanol (V:V = 1:4), 0.5 mL, 7 days
[8] = N,N-Dimethylformamide, 0.5 mL, 24 h
[9] = N,N-Dimethylformamide, 0.5 mL, 7 days
[10] = Water/acetone (V:V = 1:1), 1 mL, 2 days
[11] = Water/acetone (V:V = 2:8), 1 mL, 2 days
[12] = Water/acetone (V:V = 5:95), 1 mL, 2 days
[13] = male, SD, plasma, iv, intravenously injected, 2.0 mg/kg
[14] = male, SD, plasma, po, intragastrically administered, 5 mg/kg

Structure (SMILES): N#Cc1cnc(NC(=O)N2CCCc3cc(CN4CCN5CCC[C@H]5C4=O)c(C=O)nc32)cc1NC1CC1
- XRPD result (room temperature) [1, 4]: form I + II
- XRPD result (50° C.) [1, 4]: form I + II
- XRPD result (room temperature) [1, 5]: form I
- XRPD result (50° C.) [1, 5]: form I
- XRPD result (room temperature) [1, 6]: form I + II
- XRPD result (50° C.) [1, 6]: form I + II
- XRPD result (room temperature) [1, 7]: form I
- XRPD result (50° C.) [1, 7]: form I
- XRPD result (room temperature) [1, 8]: form I + II
- XRPD result (50° C.) [1, 8]: form I + II
- XRPD result (room temperature) [1, 9]: form I
- XRPD result (50° C.) [1, 9]: form I
- XRPD result (room temperature) ([1]; Water, 0.5 mL, 7 days): form I + II
- XRPD result (50° C.) ([1]; Water, 0.5 mL, 7 days): form I + II
- XRPD result (room temperature) [1, 10]: form I + II
- XRPD result (50° C.) [1, 10]: form I
- XRPD result (room temperature) [1, 11]: form I + II
- XRPD result (50° C.) [1, 11]: form I
- XRPD result (room temperature) [1, 12]: form I + II
- XRPD result (50° C.) [1, 12]: form I

Structure (SMILES): N#Cc1cnc(NC(=O)N2CCCc3cc(CN4CCN5CCC[C@H]5C4=O)c(C=O)nc32)cc1NC1CC1 [Crystalline form II]
- FaSSIF Solubility (Solubility test; FaSSIF (pH about 6.50), 37° C., 24 h): 19 µg/mL
- FeSSIF Solubility (Solubility test; 37° C., 24 h): 5.5 µg/mL
- SGF Solubility (Solubility test; SGF (pH about 1.20), 37° C., 24 h): >5000 µg/mL
- Water Solubility (Solubility test; 37° C., 24 h): 1.5 µg/mL
- XRPD result at 40° C./75% RH (open) (Solid stability study): Unchanged
- XRPD result at 60° C. (closed) (Solid stability study): Unchanged

Structure (SMILES): N#Cc1cnc(NC(=O)N2CCCc3cc(CN4CCN5CCC[C@H]5C4=O)c(C=O)nc32)cc1NC1CC1 [Crystalline form I]
- hygroscopic weight gain ([2]; DVS, 0-90% RH, 25° C.): about 0.24%
- hygroscopicity ([2]; DVS, 0-90% RH, 25° C.): almost non-hygroscopic
- crystalline form of the sample after the DVS test ([2]; XRPD after DVS): not changed
- Grinding stability result (crystalline form, XRPD) (Grinding stability study; Solid grinding, 2 min): unchanged
- Grinding stability result (crystalline form, XRPD) (Grinding stability study; Solid grinding, 5 min): unchanged, but the crystallinity
- Grinding stability result (crystallinity, XRPD) (Grinding stability study; Solid grinding, 5 min): became worse
- Grinding stability result (crystalline form, XRPD) (Grinding stability study; Solvent grinding, Acetone): unchanged
- Grinding stability result (crystalline form, XRPD) (Grinding stability study; Solvent grinding, Acetonitrile): unchanged
- Grinding stability result (crystalline form, XRPD) (Grinding stability study; Solvent grinding, Dichloromethane): unchanged
- Grinding stability result (crystalline form, XRPD) (Grinding stability study; Solvent grinding, Ethanol): unchanged
- Grinding stability result (crystalline form, XRPD) (Grinding stability study; Solvent grinding, Methanol): unchanged
- solubility at 24 h (Solubility test; FaSSIF (fasted state simulated intestinal fluid), pH 6.5, fassif, FaSSIF (pH about 6.50), read-out: FaSSIF Solubility): 26 µg/mL (≈ 50.5 µM)
- FeSSIF Solubility (Solubility test; 37° C., 24 h): 14 µg/mL
- solubility at 24 h (Solubility test; SGF (simulated gastric fluid), pH 1.2, simulated gastric fluid, SGF (pH about 1.20), read-out: SGF Solubility): > 5000 µg/mL
- Water Solubility (Solubility test; 37° C., 24 h): 3.1 µg/mL
- XRPD result at 40° C./75% RH (open) (Solid stability study): Unchanged
- XRPD result at 60° C. (closed) (Solid stability study): Unchanged

Structure (SMILES): N#Cc1cnc(NC(=O)N2CCCc3cc(CN4CCN5CCC[C@@H]5C4=O)c(C=O)nc32)cc1NC1CC1 [compound of formula C]
- AUC(0-t) [3, 13]: 2550 ng·h/mL
- clearance [3, 13]: 13.4 mL/min/kg
- half-life [3, 13]: 1.23 h
- bioavailability ([3]; male, SD, plasma, oral, intragastric 5 mg/kg vs intravenous 2.0 mg/kg, read-out: absolute bioavailability): 35.3%
- AUC(0-t) [3, 14]: 2250 ng·h/mL
- Cmax [3, 14]: 597 ng/mL
- half-life [3, 14]: 1.24 h
- Tmax ([3]; male, SD, plasma, po, intragastrically administered, 5 mg/kg, read-out: time at which the plasma concentration reached the peak value (Tmax)): 2.5 h
- volume distribution ([3]; intravenously injected, 2.0 mg/kg): 0.973 L/kg
